Here are results for one compound from US20260374818A1, “CATIONIC PEPTIDES WITH BROAD SPECTRUM ACTIVITY” (priority 2023, published 2026).

Where a SMILES comes first, the peptide text is derived from it. [ ]: non-standard residue; d: D form.

This assay has as its system 3-day-old oral plaque biofilms. In words: Plaque biofilms treated with oral rinse solutions for 14 days. The class given is cell-based. Particulars: 0.12% CHX+10 μg/mL peptide, twice daily. The method, then: Briefly, after the formation of a 3-day-old biofilm, HA disks were rinsed in PBS for 1 minute and assigned to one of five treatment groups: (i) sterile water, (ii) Listerine Total Care Mouthwash (Johnson & Johnson Inc., Canada), (iii) GUM Paroex Mouthwash (Sunstar, USA), (iv) 0.12% CHX+10 μg/mL of peptide DJK-5, and (v) 0.12% CHX+10 μg/mL of peptide AB103-D. For each treatment, the disks were treated twice each day (i.e. at 8 am and […] for the first and second time, respectively). Treatment consisted of a droplet of 40 μl of each solution spread on the surface of the biofilm for 1 minute, followed by rinsing with PBS for 1 minute and then placing the disk back into the 24-well plates under anaerobic conditions at 37 °C. On the 0, 1st, 3rd, 7th, 10th, and 14th day, three disks from each group were collected for confocal microscopy analysis. Biofilms were stained with fluorescent dyes SYTO-9 and propidium iodide, which stain live cells green and dead cells red, respectively. The scale bar represents 200 μm. […]. […] The results indicated improved antibiofilm effects of AB103-D on 3-day-old oral plaque biofilms compared to treatment by various oral rinse solutions for 14 days.

Regarding `CC[C@@H](C)[C@@H](NC(=O)[C@@H](C)NC(=O)[C@@H](CCCNC(=N)N)NC(=O)[C@@H](Cc1c[nH]c2ccccc12)NC(=O)[C@@H](CCC(N)=O)NC(=O)[C@H](NC(=O)[C@@H](CCCNC(=N)N)NC(=O)[C@H](NC(=O)[C@H](NC(=O)[C@@H](CCCNC(=N)N)NC(=O)[C@H](NC(=O)[C@H](N)CCCNC(=N)N)C(C)C)C(C)C)[C@H](C)CC)C(C)C)C(N)=O` [AB103-D, rvrvirvqwrai-NH2] (H-[dR][dV][dR][dV][dI][dR][dV][dQ][dW][dR][dA][dI]-NH2), the “Proportion of dead bacteria within the biofilm” value is listed as “more effective than DJK5” and the Residual plaque biovolume entry was “superior than DJK5”.
